Results on 22 compounds are retold here after patent publication US9999619B2, “Piperidin-4-yl azetidine derivatives as JAK1 inhibitors” (Incyte Corporation, priority 2010, dated 2018).

Some results are limits rather than exact numbers.

Type in all cases: biochemical
Test [1] deals with Jak2 (a.a. 828-1132) (Homo sapiens (Human), UniProt O60674). Put plainly: In vitro JAK kinase assay (HTRF, phosphorylation of a biotinylated peptide), JAK2. The conditions noted are these: measured at 1 mM ATP. Here is the method: (§1) Compounds herein were tested for inhibitory activity of JAK targets according to the following in vitro assay described in Park et al., Analytical Biochemistry 1999, 269, 94-104. The catalytic domains of human JAK1 (a.a. 837-1142), Jak2 (a.a. 828-1132) and Jak3 (a.a. 781-1124) with an N-terminal His tag were expressed using baculovirus in insect cells and purified. The catalytic activity of JAK1, JAK2 or JAK3 was assayed by measuring the phosphorylation of a biotinylated peptide. The phosphorylated peptide was detected by homogenous time resolved fluorescence (HTRF). […] Reactions were carried out at room temperature for 1 hr and then stopped with 20 μL 45 mM EDTA, 300 nM SA-APC, 6 nM Eu-Py20 in assay buffer (Perkin Elmer, Boston, Mass.). Binding to the Europium labeled antibody took place for 40 minutes and HTRF signal was measured on a Fusion plate reader (Perkin Elmer, Boston, Mass.).
Sequence of Jak2 (a.a. 828-1132) (O60674 828-1132): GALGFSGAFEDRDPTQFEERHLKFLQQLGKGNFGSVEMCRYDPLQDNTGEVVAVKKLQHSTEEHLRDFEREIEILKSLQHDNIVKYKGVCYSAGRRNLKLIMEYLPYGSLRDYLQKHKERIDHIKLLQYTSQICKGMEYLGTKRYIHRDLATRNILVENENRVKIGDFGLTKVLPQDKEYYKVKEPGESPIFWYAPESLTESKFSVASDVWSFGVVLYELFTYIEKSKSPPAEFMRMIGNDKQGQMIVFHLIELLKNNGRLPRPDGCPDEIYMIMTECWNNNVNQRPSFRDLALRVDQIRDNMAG
(In general: TR-FRET usually uses a lanthanide donor and a delayed reading to cut background.)

The target of test [2] is human JAK1 (a.a. 837-1142). Put plainly: In vitro JAK kinase assay (HTRF, phosphorylation of a biotinylated peptide), JAK1. As to conditions: ratio of JAK2 IC50 to JAK1 IC50, measured at 1 mM ATP. The procedure: as §1
Test [3] concerns the target human JAK1 (a.a. 837-1142) (Homo sapiens, UniProt P23458). The test is described as above. As to conditions: measured at 1 mM ATP. Here is the method: as §1

On to `N#CCC1(n2cc(-c3ncnc4[nH]ccc34)cn2)CN(C2CCN(C(=O)c3sccc3Cl)CC2)C1` [Example 76, {1-{1-[(3-chloro-2-thienyl)carbonyl]piperidin-4-yl}-3-[4-(7H-pyrrolo[2,3-d]pyrimidin-4-yl)-1H-pyrazol-1-yl]azetidin-3-yl}acetonitrile], for which the half-inhibitory concentration (IC50) is not above 10 nM in test [1] and not above 5 nM in test [3]. For the same compound, the “IC50 Ratio JAK2/JAK1” value in test [2] amounted to 5.5.
For `N#CCC1(n2cc(-c3ncnc4[nH]ccc34)cn2)CN(C2CCN(C(=O)c3ccc4ncccc4c3)CC2)C1` [Example 89, {3-[4-(7H-pyrrolo[2,3-d]pyrimidin-4-yl)-1H-pyrazol-1-yl]-1-[1-(quinolin-6-ylcarbonyl)piperidin-4-yl]azetidin-3-yl}acetonitrile], in that order: not above 10 nM, not above 5 nM and 2.6.
On the same counts, the results for `N#CCC1(n2cc(-c3ncnc4[nH]ccc34)cn2)CN(C2CCN(Cc3cccc(Cl)c3Cl)CC2)C1` [Example 219, {1-[1-(2,3-dichlorobenzyl)piperidin-4-yl]-3-[4-(7H-pyrrolo[2,3-d]pyrimidin-4-yl)-1H-pyrazol-1-yl]azetidin-3-yl}acetonitrile] are 10 to 50 nM, 5 to 20 nM and 2.4.
On to `N#CCC1(n2cc(-c3ncnc4[nH]ccc34)cn2)CN(C2CCN(C(=O)c3ccc(C(F)(F)F)cc3F)CC2)C1` [Example 82, {1-{1-[2-fluoro-4-(trifluoromethyl)benzoyl]piperidin-4-yl}-3-[4-(7H-pyrrolo[2,3-d]pyrimidin-4-yl)-1H-pyrazol-1-yl]azetidin-3-yl}acetonitrile], for which the IC50 in test [1] is not above 10 nM; in test [3], not above 5 nM. In test [2], the “IC50 Ratio JAK2/JAK1” value amounted to 5.3.
For `N#CCC1(n2cc(-c3ncnc4[nH]ccc34)cn2)CN(C2CCN(C(=O)c3cnccn3)CC2)C1` [Example 14, {1-[1-(pyrazin-2-lcarbonyl)piperidin-4-yl]-3-[4-(7H-pyrrolo[2,3-d]pyrimidin-4-yl)-1H-pyrazol-1-yl]azetidin-3-l}acetonitrile], in that order: 10 to 50 nM, 5 to 20 nM and 3.2.
With `N#CCC1(n2cc(-c3ncnc4[nH]ccc34)cn2)CN(C2CC3CCC(C2)N3Cc2c(F)ccc(F)c2Cl)C1` (stereo not shown) [Example 241, {1-[8-(2-Chloro-3,6-difluorobenzyl)-8-azabicyclo[3.2.1]oct-3-yl]-3-[4-(7H-pyrrolo[2,3-d]pyrimidin-4-yl)-1H-pyrazol-1-yl]azetidin-3-yl}acetonitrile], the results for the IC50 in test [1] and in test [3] were not above 10 nM and not above 5 nM, respectively. The “IC50 Ratio JAK2/JAK1” value in test [2] was found to be 3.8.
As to `Cc1onc(-c2ccccc2)c1CN1CCC(N2CC(CC#N)(n3cc(-c4ncnc5[nH]ccc45)cn3)C2)CC1` [Example 230, {1-{1-[(5-methyl-3-phenylisoxazol-4-yl)methyl]piperidin-4-yl}-3-[4-(7H-pyrrolo[2,3-d]pyrimidin-4-yl)-1H-pyrazol-1-yl]azetidin-3-yl}acetonitrile], the half-maximal inhibitory concentration (IC50) is more than 100 nM in test [1] and 5 to 20 nM in test [3]. In addition, the “IC50 Ratio JAK2/JAK1” value in test [2] amounted to 9.3.
On the same counts, the results for `N#CCC1(n2cc(-c3c(F)cnc4[nH]ccc34)cn2)CN(C2CCN(C(=O)c3cc(F)cc(C#N)c3)CC2)C1` [Example 316, 3-[(4-{3-(cyanomethyl)-3-[4-(5-fluoro-1H-pyrrolo[2,3-b]pyridin-4-yl)-1H-pyrazol-1-yl]azetidin-1-yl}piperidin-1-yl)carbonyl]-5-fluorobenzonitrile] are 10 to 50 nM, not above 5 nM and 9.5.
On the same counts, the results for `N#CCC1(n2ccc(-c3ncnc4[nH]ccc34)c2)CN(C2CCN(C(=O)c3cc(F)ccc3F)CC2)C1` [Example 278, {1-[1-(2,5-difluorobenzoyl)piperidin-4-yl]-3-[3-(7H-pyrrolo[2,3-d]pyrimidin-4-yl)-1H-pyrrol-1-yl]azetidin-3-yl}acetonitrile] are not above 10 nM, not above 5 nM and 5.6.
Consider `N#CCC1(n2cc(-c3ccnc4[nH]ccc34)cn2)CN(C2CCN(C(=O)c3nc(C(F)(F)F)cs3)CC2)C1` [Example 350], for which the figures for the IC50 in test [1] and in test [3] were more than 100 nM and 5 to 20 nM, respectively. In addition, in test [2], the “IC50 Ratio JAK2/JAK1” value was 15.0.
`N#CCC1(n2cc(-c3ncnc4[nH]ccc34)cn2)CN(C2CCN(C(=O)c3ccc(-c4cccc5cccnc45)c(F)c3)CC2)C1` [Example 132, {1-[1-(3-fluoro-4-quinolin-8-ylbenzoyl)piperidin-4-yl]-3-[4-(7H-pyrrolo[2,3-d]pyrimidin-4-yl)-1H-pyrazol-1-yl]azetidin-3-yl}acetonitrile]: the IC50 in test [1] was not above 10 nM. In test [2], the “IC50 Ratio JAK2/JAK1” value came out at 5.8.
As to `CC1CC(N2CC(CC#N)(n3cc(-c4ncnc5[nH]ccc45)cn3)C2)CCN1Cc1ccc(N(C)C)c(C#N)c1F` (single isomer, unassigned) [Example 242, 3-[(4-{3-(cyanomethyl)-3-[4-(7H-pyrrolo[2,3-d]pyrimidin-4-yl)-1H-pyrazol-1-yl]azetidin-1-yl}-2-methylpiperidin-1-yl)methyl]-6-(dimethylamino)-2-fluorobenzonitrile], the “IC50 Ratio JAK2/JAK1” value in test [2] came to 8.3.
Turning to `CC1CC(N2CC(CC#N)(n3cc(-c4ncnc5[nH]ccc45)cn3)C2)CCN1Cc1c(F)cccc1Cl` (stereo not shown) [Example 245, {1-[1-(2-chloro-6-fluorobenzyl)-2-methylpiperidin-4-yl]-3-[4-(7H-pyrrolo[2,3-d]pyrimidin-4-yl)-1H-pyrazol-1-yl]azetidin-3-yl}acetonitrile], the “IC50 Ratio JAK2/JAK1” value in test [2] came out at 1.5.
`CC1CC(N2CC(CC#N)(n3cc(-c4ncnc5[nH]ccc45)cn3)C2)CCN1C(=O)c1cccc(F)c1` (single isomer, unassigned) [Example 149, {1-[1-(3-fluorobenzoyl)-2-methylpiperidin-4-yl]-3-[4-(7H-pyrrolo[2,3-d]pyrimidin-4-yl)-1H-pyrazol-1-yl]azetidin-3-yl}acetonitrile]: the “IC50 Ratio JAK2/JAK1” value in test [2] came out at 5.0. In test [3], this compound had a half-inhibitory concentration (IC50) not above 5 nM.
For `CC1CC(N2CC(CC#N)(n3cc(-c4ncnc5[nH]ccc45)cn3)C2)CCN1C(=O)c1cccc(F)c1` (single isomer, unassigned) [Example 150, {1-[1-(3-fluorobenzoyl)-2-methylpiperidin-4-yl]-3-[4-(7H-pyrrolo[2,3-d]pyrimidin-4-yl)-1H-pyrazol-1-yl]azetidin-3-yl}acetonitrile], the “IC50 Ratio JAK2/JAK1” value in test [2] was 7.0. This compound registered an IC50 in test [3] not above 5 nM.
As to `Cc1csc(C(=O)N2CCC(N3CC(CC#N)(n4cc(-c5ncnc6[nH]ccc56)cn4)C3)CC2)c1` [Example 79, {1-{1-[(4-meth1-2-thienyl)carbonyl]piperidin-4-yl}-3-[4-(7H-pyrrolo[2,3-d]pyrimidin-4-yl)-1H-pyrazol-1-yl]azetidin-3-yl}acetonitrile], the IC50 in test [1] is not above 10 nM; in test [3], not above 5 nM.
As to `CC1CC(N2CC(CC#N)(n3cc(-c4ncnc5[nH]ccc45)cn3)C2)CCN1Cc1c(F)cccc1Cl` (stereo not shown) [Example 244, {1-[1-(2-chloro-6-fluorobenzyl)-2-methylpiperidin-4-yl]-3-[4-(7H-pyrrolo[2,3-d]pyrimidin-4-yl)-1H-pyrazol-1-yl]azetidin-3-yl}acetonitrile], the “IC50 Ratio JAK2/JAK1” value in test [2] turned out to be 1.8.
For `N#CCC1(n2cc(-c3ncnc4[nH]ccc34)cn2)CN(C2CCN(Cc3ccc(F)cc3F)CC2)C1` [Example 217, {1-[1-(2,4-difluorobenzyl)piperidin-4-yl]-3-[4-(7H-pyrrolo[2,3-d]pyrimidin-4-yl)-1H-pyrazol-1-yl]azetidin-3-yl}acetonitrile], the “IC50 Ratio JAK2/JAK1” value in test [2] stood at 5.8.
In the case of `CC1CC(N2CC(CC#N)(n3cc(-c4ncnc5[nH]ccc45)cn3)C2)CCN1Cc1c(F)cccc1Cl` (single isomer, unassigned) [Example 244, {1-[1-(2-chloro-6-fluorobenzyl)-2-methylpiperidin-4-yl]-3-[4-(7H-pyrrolo[2,3-d]pyrimidin-4-yl)-1H-pyrazol-1-yl]azetidin-3-yl}acetonitrile], the figures for the IC50 in test [1] and in test [3] were 10 to 50 nM and 5 to 20 nM, respectively.
Take `N#CCC1(n2cc(-c3ncnc4[nH]ccc34)cn2)CN(C2CCN(C(=O)Nc3ccc(F)cc3C(F)(F)F)CC2)C1` [Example 154, 4-{3-(Cyanomethyl)-3-[4-(7H-pyrrolo[2,3-d]pyrimidin-4-yl)-1H-pyrazol-1-yl]azetidin-1-yl}-N-[4-fluoro-2-(trifluoromethyl)phenyl]piperidine-1-carboxamide]: the values for the IC50 in test [1] and in test [3] were 10 to 50 nM and not above 5 nM, respectively.
As for `CC1CC(N2CC(CC#N)(n3cc(-c4ncnc5[nH]ccc45)cn3)C2)CCN1Cc1ccc(N(C)C)c(C#N)c1F` (single isomer, unassigned) [Example 243, 3-[(4-{3-(cyanomethyl)-3-[4-(7H-pyrrolo[2,3-d]pyrimidin-4-yl)-1H-pyrazol-1-yl]azetidin-1-yl}-2-methylpiperidin-1-yl)methyl]-6-(dimethylamino)-2-fluorobenzonitrile], the “IC50 Ratio JAK2/JAK1” value in test [2] was 6.4.
As for `N#CCC1(n2cc(-c3ncnc4[nH]ccc34)cn2)CN(C2CCN(C(=O)c3ccc(-c4cccnc4)cc3F)CC2)C1` [Example 120, {1-[1-(2-fluoro-4-pyridin-3-ylbenzoyl)piperidin-4-yl]-3-[4-(7H-pyrrolo[2,3-d]pyrimidin-4-yl)-1H-pyrazol-1-yl]azetidin-3-yl}acetonitrile], the values for the half-maximal inhibitory concentration (IC50) in test [1] and in test [3] were not above 10 nM and not above 5 nM, respectively.

As a reminder, the IC50 is the concentration that gives 50% inhibition. The low end stands for greater potency, the high end for weaker potency.
